Earlier results as cited in patent US20240309009A1, “Anxiolytic Compounds, Pharmaceutical Compositions, and Methods of Treating Anxiety and Other Disorders” (Miralogx LLC, priority 2022, published 2024).
Like-named read-outs stand apart in the source and are kept apart here.

Columns and labels:
[1] = test system: cell cultures
[2] = test system: zebrafish
[3] = test system: rat nerve cells
[4] = unlike ibogaine

| Structure (SMILES) | duration of effects (inhaled or injected) | duration of effects (orally ingested along with a monoamine oxidase inhibitor (MAOI)) | toxicity compared with ibogaine [1] | toxicity compared with ibogaine [2] | formation of new dendrites (branches) [3] | formation of new spines on dendrites [3] | water solubility [4] |
| --- | --- | --- | --- | --- | --- | --- | --- |
| CN(C)CCc1c[nH]c2ccccc12 [DMT, N,N-Dimethyltryptamine] | 5 to 15 min | three |  |  |  |  |  |
| COc1ccc2c3c([nH]c2c1)CCN(C)CC3 [TBG, Tabernanthalog] |  |  | less toxic than ibogaine | less toxic than ibogaine | increased formation of new dendrites | new spines on those dendrites | water-soluble |
